The subject of assay [1] is lambs with acute pulmonary hypertension. To be noted: cited from earlier work; for pulmonary vasodilation / effect on mean arterial pressure / transpulmonary cGMP release / systemic arterial oxygenation: inhaled microparticles, awake lambs; for pulmonary vasodilation: U-46619 infused to mean pulmonary arterial pressure 35 mm Hg; for effect on mean arterial pressure / transpulmonary cGMP release / systemic arterial oxygenation: U-46619 infusion.

The target of assay [2] is T1, soluble guanylate cyclase (sGC) (Homo sapiens, UniProt Q02108+Q02153).
T1 construct: endogenously expressing soluble guanylate cyclase (sGC); endogenous in cells; host or cells: HEK293
T1 sequence (Q02153 1-619): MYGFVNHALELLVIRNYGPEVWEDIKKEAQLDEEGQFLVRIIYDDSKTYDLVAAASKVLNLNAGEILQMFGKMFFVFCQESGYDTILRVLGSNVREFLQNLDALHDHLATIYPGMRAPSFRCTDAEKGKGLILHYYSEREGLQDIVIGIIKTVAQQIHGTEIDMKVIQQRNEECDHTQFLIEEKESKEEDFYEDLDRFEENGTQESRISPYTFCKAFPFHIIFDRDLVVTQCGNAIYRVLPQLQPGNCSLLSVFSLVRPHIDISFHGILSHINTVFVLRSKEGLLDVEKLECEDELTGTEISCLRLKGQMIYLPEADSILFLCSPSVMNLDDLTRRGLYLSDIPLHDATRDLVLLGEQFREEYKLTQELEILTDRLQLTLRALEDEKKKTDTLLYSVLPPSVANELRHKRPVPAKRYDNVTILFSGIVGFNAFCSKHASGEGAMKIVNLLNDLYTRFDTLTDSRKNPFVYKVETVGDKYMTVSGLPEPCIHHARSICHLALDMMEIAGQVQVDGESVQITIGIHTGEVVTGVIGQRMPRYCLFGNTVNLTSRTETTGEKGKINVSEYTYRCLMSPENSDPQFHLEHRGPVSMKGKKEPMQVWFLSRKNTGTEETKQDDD
T1 sequence (Q02108 1-690): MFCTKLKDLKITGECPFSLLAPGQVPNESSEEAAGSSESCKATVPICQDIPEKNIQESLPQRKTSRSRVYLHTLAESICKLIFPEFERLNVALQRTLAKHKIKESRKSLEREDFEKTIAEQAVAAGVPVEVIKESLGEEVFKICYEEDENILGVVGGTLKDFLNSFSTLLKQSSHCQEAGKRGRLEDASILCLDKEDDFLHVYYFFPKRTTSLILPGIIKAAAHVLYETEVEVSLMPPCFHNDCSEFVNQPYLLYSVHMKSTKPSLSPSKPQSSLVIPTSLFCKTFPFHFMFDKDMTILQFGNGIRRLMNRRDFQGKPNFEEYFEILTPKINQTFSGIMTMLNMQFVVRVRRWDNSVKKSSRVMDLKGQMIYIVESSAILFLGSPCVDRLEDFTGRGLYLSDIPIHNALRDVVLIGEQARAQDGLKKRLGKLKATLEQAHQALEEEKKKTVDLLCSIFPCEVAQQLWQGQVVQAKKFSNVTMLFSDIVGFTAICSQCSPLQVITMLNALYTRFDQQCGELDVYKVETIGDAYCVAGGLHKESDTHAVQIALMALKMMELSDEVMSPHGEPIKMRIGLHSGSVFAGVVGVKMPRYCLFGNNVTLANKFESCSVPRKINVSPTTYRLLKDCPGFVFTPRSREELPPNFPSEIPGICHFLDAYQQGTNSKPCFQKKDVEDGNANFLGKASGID
Kind of assay: sGC-HEK-cGMP assay with SNP incubation (LC/MS read-out). It is filed as cell-based. To be noted: 10 μM SNP; for Emax at 1 µM: 1 μM compound, read-out: HEK assay (Percent Emax at 1 μM); for Emax at 1 µM / Emax at 10 µM / Emax at 30 µM: 100% = BAY 41-2272 at 10 μM with 100 μM SNP; for Emax at 10 µM: 10 μM compound, read-out: HEK assay (Percent Emax at 10 μM); for Emax at 30 µM: 30 μM compound, read-out: HEK assay (Percent Emax at 30 μM); for Emax: maximum of full concentration-response curve, top not fitted to 100%, relative to BAY 41-2272 control, read-out: HEK assay Emax-unconstrained (Percent); for EC50: top of curve not fitted to 100%, read-out: HEK assay EC50-unconstrained. On the procedure:
(Assay Run with SNP Incubation)
(§1) Human embryonic kidney cells (HEK293), endogenously expressing soluble guanylate cyclase (sGC), were used to evaluate the activity of test compounds. Compounds stimulating the sGC receptor should cause an increase in the intracellular concentration of cGMP. HEK 293 cells were seeded in Dulbecco's Modification of Eagle's Medium supplemented with fetal bovine serum (10% final) and L-glutamine (2 mM final) in a 200 μL volume at a density of 1×10^5 cells/well in a poly-D-lysine coated 96 well flat bottom plate and grown overnight at 37° C. Medium was aspirated and cells were washed with 1× Hank's Buffered Saline Salt Solution (200 μL). Cells were then incubated for 15 minutes at 37° C. with 200 μL of a 0.5 mM 3-isobutyl-1-methylxanthine (IBMX) solution. Test article and sodium nitroprusside solutions (x μM concentration for test article solution and 10 μM concentration for SNP solution; wherein x is one of the following concentrations);
were then added to the assay mixture (2 μL each) and the resulting mixture incubated at 37° C. for 10 minutes. After the 10 minute incubation, the assay mixture was aspirated and 0.1M HCl (200 μL) was added to the cells. The plate was incubated at 4° C. for 30 minutes in the 0.1M HCl to stop the reaction and lyse the cells. The plates were then centrifuged at 1,200 g for 5 minutes at room temperature. Supernatants were collected and transferred to a new flat bottom 96 well plate for analysis by HPLC-MS. Vehicle controls were carried out using DMSO (1%) solutions. A known sGC stimulator, BAY 41-2272, was used as the positive control. Samples were diluted with an equal volume of 1 M Ammonium Acetate (pH 7) to neutralize samples for better chromatography. A 2×cGMP standard solution was prepared in 0.1 M HCl and then diluted with an equal volume of 1 M Ammonium Acetate, with the following final concentrations in nM: 1024, 512, 256, 128, 64, 32, 16, 8, 4, 2, 1. cGMP concentrations in the test plates were determined from each sample using the LC/MS conditions shown in Table 2 below and the calculated cGMP standard curve. EC50 values were calculated from concentration-response curves generated with GraphPad Prism Software.
The biological activities of some of the compounds of Formula I or Formula Ib determined with the sGC-HEK assay with SNP incubation are summarized in Tables 3A and 3B.

The target in assay [3] is T1, soluble guanylate cyclase (sGC). Kind of assay: HEK whole cell assay using HTRF procedure (with SNP incubation). As to conditions: HTRF cGMP read-out, 10 μM SNP; for Emax: relative to BAY 41-2272 at 10 μM with 100 μM SNP, read-out: HEK assay Emax-unconstrained (Percent); for EC50: top of curve not fitted to 100%, read-out: HEK assay EC50-unconstrained. It is filed as cell-based. On the procedure:
Example 2B, HEK whole cell assay using HTRF procedure (Assay Run with SNP Incubation)
as §1, with “enzyme” for “receptor”
were then added to the assay mixture (2 μL each) and the resulting mixture incubated at 37° C. for 10 minutes. After the 10 minute incubation, the assay mixture was aspirated and 0.1M HCl (200 μL) was added to the cells. The plate was incubated at 4° C. for 30 minutes in the 0.1M HCl to stop the reaction and lyse the cells. The plates were then centrifuged at 1,200 g for 5 minutes at room temperature.
cGMP levels were determined using a cGMP HTRF assay (Cisbio Product #62GM2PEC). For each sample, 5 uL of HEK assay supernatant was diluted 1:5 in HTRF kit assay diluent and transferred to a well of the assay plate, and the HTRF assay was performed according to the HTRF kit manufacturer's instructions. Sample calculations were performed using high and low controls, where high control was supernatant from HEK assay performed in the presence of 10 uM Bay 41-2272+100 uM SNP, and the low control was the supernatant from the HEK assay performed in the presence of vehicle. A cGMP standard solution was prepared in 0.1 M HCl and diluted in order to perform a cGMP standard curve using the HTRF assay. Using Mean Ratio data from the HTRF assay, sample date were normalized according to the equation: 100*(Sample−Low Control)/(High Control−Low Control). Data were fit to a 3-parameter log agonist dose response (Top (% EMax), Bottom, log EC50) using Graphpad (Prism Software). Data in Table 3C was obtained using this modified assay procedure.
(In general: TR-FRET usually uses a lanthanide donor and a delayed reading to cut background.)

Structures are written as SMILES.

In general, Emax refers to the maximal effect, on the per cent scale that the assay sets. In general, EC50 refers to the concentration that produces a half-maximal response.

Consider `Nc1nc(-c2nn(Cc3ccccc3F)c3ncccc23)ncc1C1CC1` [BAY 41-2272], for which, in assay [1], the pulmonary vasodilation entry is reported as “dose dependent pulmonary vasodilation”, the “effect on mean arterial pressure” value was “without significant effect” and the “transpulmonary cGMP release” value is reported as “increased transpulmonary cGMP release”.

For `Nc1nc(-c2nn(Cc3ccccc3F)c3ncccc23)nc(N)c1N1CCOCC1` [BAY 41-8543], the “magnitude and duration of pulmonary vasodilation induced by iNO” value in assay [1] (after inhaling microparticles, lambs) is listed as “augmented”. Besides, in assay [1], the pulmonary vasodilation result is reported as “dose dependent pulmonary vasodilation”, the “effect on mean arterial pressure” value is listed as “without significant effect”, the systemic arterial oxygenation entry is given as “increased systemic arterial oxygenation” and the “transpulmonary cGMP release” value is on record as “increased transpulmonary cGMP release”.

For `O=C(O)CCCCN(CCc1ccccc1OCc1ccc(CCc2ccccc2)cc1)Cc1ccc(C(=O)O)cc1` [BAY 58-2667], the “pulmonary vasodilation and transpulmonary cGMP release after treatment with ODQ” value in assay [1] (inhaled microparticles after intravenous ODQ, lambs) was “greatly enhanced”. Further, in assay [1], the pulmonary vasodilation result is “dose dependent pulmonary vasodilation”, the “effect on mean arterial pressure” value was “without significant effect”, the systemic arterial oxygenation entry was “increased systemic arterial oxygenation” and the “transpulmonary cGMP release” value is “increased transpulmonary cGMP release”.

Take `O=c1[nH]c(-n2cc(-c3ccon3)c(Cc3ccccc3F)n2)ncc1F` [Compound I-1]: in assay [2], the Emax at 1 µM lay in the range of 60 to 80%, the Emax at 10 µM lay within 80 to 100%, the Emax at 30 µM lay within 80 to 100% and the Emax was in the range of 80 to 100%. Further, the EC50 in assay [2] lay in the range of 10 to 100 nM.

Turning to `CC(C)[C@@H](C(=O)O)N(C)c1nc(-n2cc(-c3ccon3)c(Cc3ccccc3F)n2)ncc1F` [Compound I-4], in assay [2], the Emax at 1 µM lay in the range of 80 to 100%, the Emax at 10 µM fell in the range of 100 to 120%, the Emax at 30 µM is 100 to 120% and the maximum response (Emax) was 100 to 120%. Besides, the EC50 in assay [2] fell in the range of 10 to 100 nM.

Take `OCC(CO)Nc1nc(-n2cc(-c3ccon3)c(Cc3ccccc3F)n2)ncc1F` [Compound I-5]: in assay [3], the Emax was in the range of 80 to 100% and the EC50 lay in the range of 100 to 500 nM.

With `Fc1ccccc1Cc1nn(-c2ncc(F)c(N3CCOCC3)n2)cc1-c1ccon1` [Compound I-6], in assay [3], the Emax lay within 80 to 100% and the EC50 is 100 to 500 nM.

As to `OCC(O)Cn1ccc2cnc(-n3cc(-c4ccon4)c(Cc4ccccc4F)n3)nc21` (stereo not shown) [Compound I-7], in assay [3], the Emax lay within 80 to 100% and the EC50 was in the range of 100 to 500 nM.

As to `Nc1ccnc(-n2cc(-c3ccon3)c(Cc3ccccc3F)n2)n1` [Compound I-9], in assay [2], the maximum response (Emax) at 1 µM fell in the range of 60 to 80%, the Emax at 10 µM lay in the range of 80 to 100%, the Emax at 30 µM fell in the range of 80 to 100% and the Emax fell in the range of 80 to 100%. Moreover, the EC50 in assay [2] was in the range of 100 to 500 nM.

Take `COc1nc(-n2cc(-c3ccon3)c(Cc3ccccc3F)n2)ncc1F` [Compound I-10]: in assay [2], the Emax at 1 µM was 20 to 40%, the Emax at 10 µM was in the range of 20 to 40%, the Emax at 30 µM lay in the range of 20 to 40% and the Emax was 20 to 40%. In addition, the EC50 in assay [2] lay in the range of 500 to 1000 nM.

For the compound `O=c1onc2cnc3ccccc3n12` [ODQ, 1H-[1,2,4]oxadiazolo[4,3-a]quinoxalin-1-one], the “pulmonary vasodilator effect of iNO” value in assay [1] (intravenous administration, lambs) is “markedly reduced”.
